Measured values: patent USRE36397E, “Inhibitors of poly(ADP-ribose) synthetase and use thereof to treat NMDA neurotoxicity” (The John Hopkins University, priority 1998, dated 1999)
Entries after “also recorded” stand apart in the source; their conditions may differ. Where two headings read alike, the source gives them in different places.

How the values were obtained:
[1] = biological target: PARS (poly(ADP-ribose) synthetase) (Rattus norvegicus, UniProt P27008); experiment: PARS activity in rat brain nuclear extracts; format: biochemical; details: for activity at 20 µM: read-out: PARS activity, % of basal levels
Chain of PARS (poly(ADP-ribose) synthetase) (P27008 whole entry): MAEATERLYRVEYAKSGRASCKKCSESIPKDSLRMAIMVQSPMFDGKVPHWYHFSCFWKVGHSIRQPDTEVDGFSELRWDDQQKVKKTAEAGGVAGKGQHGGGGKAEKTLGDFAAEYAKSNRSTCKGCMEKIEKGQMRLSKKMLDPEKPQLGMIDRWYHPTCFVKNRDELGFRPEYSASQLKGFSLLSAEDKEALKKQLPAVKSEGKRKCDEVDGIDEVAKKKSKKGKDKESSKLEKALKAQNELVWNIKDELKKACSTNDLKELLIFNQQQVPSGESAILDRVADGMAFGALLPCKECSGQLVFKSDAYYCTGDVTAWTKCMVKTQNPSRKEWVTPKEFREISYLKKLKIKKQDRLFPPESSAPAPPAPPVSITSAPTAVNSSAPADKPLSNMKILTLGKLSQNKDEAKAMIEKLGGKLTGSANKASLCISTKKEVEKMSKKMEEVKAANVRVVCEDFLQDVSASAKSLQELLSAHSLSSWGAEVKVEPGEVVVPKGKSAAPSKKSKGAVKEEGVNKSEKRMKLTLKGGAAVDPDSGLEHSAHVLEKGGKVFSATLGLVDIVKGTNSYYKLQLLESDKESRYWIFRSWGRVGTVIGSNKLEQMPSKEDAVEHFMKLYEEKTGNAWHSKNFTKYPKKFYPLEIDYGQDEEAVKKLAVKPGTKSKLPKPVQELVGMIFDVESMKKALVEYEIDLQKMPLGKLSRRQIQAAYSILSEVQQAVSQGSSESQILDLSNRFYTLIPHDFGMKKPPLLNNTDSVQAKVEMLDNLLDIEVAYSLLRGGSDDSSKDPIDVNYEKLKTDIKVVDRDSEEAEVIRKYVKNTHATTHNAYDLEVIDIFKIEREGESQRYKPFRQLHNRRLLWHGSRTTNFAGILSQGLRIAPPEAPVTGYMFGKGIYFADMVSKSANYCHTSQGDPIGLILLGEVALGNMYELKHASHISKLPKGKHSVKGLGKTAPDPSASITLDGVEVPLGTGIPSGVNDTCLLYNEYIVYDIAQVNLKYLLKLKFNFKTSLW
Description: Inhibitors of poly(ADP-ribose) synthetase are compounds which compete for the substrate binding site of poly(ADP-ribose) synthetase or other sites on the enzyme, and include both reversible and irreversible inhibitors. The present invention contemplates the use of any physiologically acceptable inhibitor which inhibits poly(ADP-ribose) synthetase activity. The effectiveness of a compound, and its relative potency as a poly(ADP-ribose) synthetase inhibitor, can be tested and routinely determined by measuring inhibition of poly(ADP-ribose) synthetase activity. Poly(ADP-ribose) synthetase activity can be assayed according to the method of Schranfstatter, et al., J. Clin. Inves. 77, 1312 (1986).
Whole brains from 1-day old rats were homogenized in 20% (w/v) buffer A [50 mM Tris-HCl (pH 7.4), 1 mM EDTA, 1 mM DTT, 50 mM NaCl, 0.25M sucrose, 0.2 mM phenylmethylsulfonyl fluoride, 1 μg/ml each of chymostatin, leupeptin, pepstatin and trypsin inhibitor]. The homogenate was centrifuged at 1000 g for 15 min. The pellet was washed with buffer A and centrifuged again. The washed pellet, termed nuclear fraction, was resuspended in buffer A. PARS activity was assayed according to I. U. Schranfstatter, et al., J. Clin. Inves. 77, 1312 (1986). Each 50 μl assay mixture contained 10 μg of the nuclear protein fraction and [adenylate-^32 P]

[2] = tested on: primary neuronal cultures from cortex; experiment: NMDA neurotoxicity in cerebral cortical cultures (trypan blue, % cell death); format: cell-based, Sprague-Dawley rats; details: for protection against NMDA neurotoxicity (in words): 10 μM 1,5-dihydroxyisoquinoline, 1 mM novobiocin, Table 1A and summary statements
Description: To determine directly if PARS activation participates in NMDA neurotoxicity, we monitored neurotoxicity elicited by NMDA in cerebral cortical cultures in which NO synthase inhibitors provide marked protection (V. L. Dawson et al., Proc. Natl. Acad. Sci. U.S.A. 88, 6368 (1991); V. L. Dawson et al., J. Neurosci. 13, 2651 (1993)) (FIG. 2).
Table 1A, PARS inhibitors were applied 30 min before and during NMDA application. In Table 1B, PARS inhibitors were applied after NMDA administration at the indicated times for 20 to 24 hr. Data are the means ±SEM (n≥8). Each data point represents 4,000-12,000 neurons counted. *p≤0.001 Student's t-test.
(§1) Primary neuronal cultures from cortex were prepared from fetal Sprague-Dawley rats, gestation day 13-14. Mature neurons (grater than 21 days in culture) were used in all experiments.
(§2) Neurotoxicity was determined by exposing the neurons to the various test solutions as previously described (Dawson, supra). […], SNP or SNAP were applied to the cells for 5 min, then the cells were washed and replaced with MEM, 21 mM glucose overnight in the incubator. Twenty to 24 hr after exposure to test solutions, the neurons were exposed to 0.4% trypan blue in CSS to stain the residue of non-viable cells and to assess toxicity. Viable and non-viable cells were counted. At least two separate experiments utilizing four separate wells were performed for each data point shown. Significant overall values were obtained by using a one-way, between groups analysis of variance. Specific comparisons on all possible pair combinations were made with the Student's t-test for independent means.

[3] = tested on: PARS; details: cited from earlier work; for relative potency as PARS inhibitor (in words): family of benzamide and its derivatives
[4] = tested on: pancreatic islet cells; details: Kallman et al. 1992; cited from earlier work
[5] = tested on: brain NOS; experiment: Nitrite formation in human kidney 293 cells stably transfected with brain NOS cDNA; format: cell-based; details: for nitrite formation: A23187 (10 μM), 2 hr, inhibitors 100 μM, n=3
Description: (§3) To ascertain whether NO itself elicits neurotoxicity by activation of PARS, we administered the NO releasers SNP and S-nitroso-N-acetylpenicillamine (SNAP). […] In human kidney 293 cells stably transfected with the cDNA of brain.

[6] = Direct interaction of benzamide with SNP/NO (HPLC recovery); format: physicochemical
[7] = tested on: primary neuronal cultures from cortex; experiment: SNP and SNAP (NO releaser) neurotoxicity in cortical neuronal cultures; format: cell-based, Sprague-Dawley rats; details: for inhibition at 100 µM: Rattus norvegicus, Primary cortical neuron
Description: as §1, §2, §3

[8] = Table 1A, 500 μM NMDA + 100 μM compound, 30 min before and during NMDA
[9] = Table 1A, 500 μM NMDA + 1 mM compound, 30 min before and during NMDA

Oc1cccc2c(O)nccc12 [1,5-dihydroxyisoquinoline]
activity at 20 µM ([1]; inhibitor 20 μM, NO-treated DNA, FIG. 1A): < 5% | protection against NMDA neurotoxicity (in words) [2]: neuroprotective | protection against NMDA neurotoxicity (in words) ([2]; listed as 1,5-dihydroxy-isoquinoline): found to prevent neurotoxicity | % Cell Death (± S.E.M.) ([2]; Table 1A, 500 μM NMDA + 10 μM compound, 30 min before and during NMDA): 39.0 ± 4.5%

NC(=O)c1cccc(N)c1 [3-aminobenzamide]
protection against NMDA neurotoxicity (in words) [2]: found to have the ability to prevent neurotoxicity; also recorded: somewhat less protection | % Cell Death (± S.E.M.) [2, 8]: 45.9 ± 5.1% | relative potency as PARS inhibitor (in words) ([3]; relative to benzamide): about half as potent | protection of pancreatic islet cells from macrophage cytotoxicity [4]: protects pancreatic islet cells from macrophage cytotoxicity

Nc1ccc2c3c(cccc13)C(=O)NC2=O [4-amino-1,8-naphthalimide]
activity at 20 µM [1]: < 5%

NC(=O)c1ccc(N)cc1 [4-aminobenzamide]
% Cell Death (± S.E.M.) [2, 8]: 55.8 ± 7.6% | fold weaker than benzamide as PARS inhibitor ([3]; relative to benzamide): 50-100 fold

CNc1ccc2oc(C[C@H]3O[C@@]4(CC[C@H]3C)O[C@H]([C@H](C)C(=O)c3ccc[nH]3)[C@H](C)C[C@H]4C)nc2c1C(=O)O [A23187]
nitrite formation [5]: 17.1±2.1 μM nitrite

O=C(O)c1ccccc1 [Benzoic acid]
protection against NMDA neurotoxicity (in words) [2]: found not to have any activity | protection against NMDA neurotoxicity (in words) ([2]; listed as benzoic acid): inactive | % Cell Death (± S.E.M.) [2, 9]: 58.9 ± 5.7% | relative potency as PARS inhibitor (in words) ([3]; relative to benzamide): inactive

CN[C@H](CC(=O)O)C(=O)O [NMDA, N-methyl- D-aspartate]
% Cell Death (± S.E.M.) ([2]; Table 1A, 500 μM NMDA alone): 57.1 ± 4.7% | % Cell Death (± S.E.M.) ([2]; Table 1B, 500 μM NMDA alone): 74.7 ± 7.8%

[NH-]c1c[n+](N2CCOCC2)no1 [SIN-1, 3-morpholinosyndnonimine]
effect on PARS activity by itself ([1]; SNP 1 mM, SIN-1 1 mM or untreated DNA, alone): no effects on PARS

NC(=O)c1ccccc1 [benzamide]
interaction with NO [6]: did not interact; also recorded: did not interact with NO | recovery of benzamide after incubation with SNP ([6]; benzamide 1 mM, SNP 1 mM, five days, 25° C., HPLC C18, 7200 min): 100% | protection against NMDA neurotoxicity (in words) [2]: found to prevent neurotoxicity | protection against NMDA neurotoxicity (in words) ([2]; listed as Benzamide): greatest degree of protection | protection against NMDA neurotoxicity ([2]; 50 μM): no significant protection was detected | reduction of NMDA mediated neurotoxicity ([2]; 100 μM, FIG. 2 legend): reduces | greater protection than at 100 μM ([2]; 500 μM versus 100 μM): about 30% | inhibition at 100 µM ([2]; Rattus norvegicus, Primary cortical neuron, read-out: protection against NMDA neurotoxicity): 40 to 50% | % Cell Death (± S.E.M.) ([2]; Table 1A, 500 μM NMDA + 50 μM compound, 30 min before and during NMDA): 60.1 ± 12.1% | % Cell Death (± S.E.M.) [2, 8]: 39.5 ± 5.0% | % Cell Death (± S.E.M.) ([2]; Table 1A, 500 μM NMDA + 500 μM compound, 30 min before and during NMDA): 21.9 ± 4.1% | % Cell Death (± S.E.M.) ([2]; Table 1B, 100 μM compound applied 5 min after 500 μM NMDA): 35.6 ± 8.7% | % Cell Death (± S.E.M.) ([2]; Table 1B, 100 μM compound applied 30 min after 500 μM NMDA): 40.4 ± 5.6% | % Cell Death (± S.E.M.) ([2]; Table 1B, 100 μM compound applied 1 hour after 500 μM NMDA): 43.4% | IC50 ([3]; in vitro, Banasik et al. 1992, read-out: IC50 for inhibiting PARS in vitro): 22 µM | reduction of SNAP mediated neurotoxicity ([7]; 100 μM, SNAP (300 μM), FIG. 2 legend): reduces | reduction of SNP mediated neurotoxicity ([7]; 100 μM, SNP (500 μM), FIG. 2 legend): reduces | inhibition at 100 µM ([7]; SNAP, read-out: reduction of SNAP neurotoxicity): 45 to 50% | inhibition at 100 µM ([7]; SNP, read-out: reduction of SNP neurotoxicity): 45 to 50%

CO[C@@H]1[C@@H](OC(N)=O)[C@@H](O)[C@H](Oc2ccc3c(O)c(NC(=O)c4ccc(O)c(CC=C(C)C)c4)c(=O)oc3c2C)OC1(C)C [novobiocin]
protection against NMDA neurotoxicity (in words) [2]: found not to have any activity in preventing neurotoxicity; also recorded: ineffective | % Cell Death (± S.E.M.) [2, 9]: 62.4 ± 8.9%

nitroarginine
effect on NOS / stimulated nitrite levels ([5]; 100 μM): abolished | nitrite formation [5]: 3.9±1.6 μM nitrite
